Measurements taken from ChEMBL document CHEMBL3632482, “Nitrogen Oxide Inhibitory Trimeric and Dimeric Carbazole Alkaloids from Murraya tetramera” (J Nat Prod, 2015).

Key:
[1] = Cytotoxicity against mouse BV2 cells assessed as cell viability at 40 uM after 24 hrs by MTT assay relative to control; type: cell-based, BV-2; details: read-out: Activity
[2] = Antiinflammatory activity in mouse BV2 cells assessed as inhibition of LPS-stimulated nitric oxide production after 24 hrs by Griess assay; type: functional, cell-based; details: BV-2, 24 h
[3] = Cytotoxicity against mouse BV2 cells assessed as effect on cell viability after 24 hrs by MTT assay; type: cell-based; details: bv-2, 24 h
[4] = Antiinflammatory activity in mouse BV2 cells assessed as inhibition of LPS-stimulated nitric oxide production at 40 uM after 24 hrs by Griess assay relative to control; type: functional; details: BV-2, 24 h

Row | Compound | viability at 24 h, 40 µM [1] [%] | IC50 [2] [µM] | Activity [3] | inhibition at 40 µM [4] [%]
1 | COc1cc(Cc2c(O)c(C)cc3c2[nH]c2ccccc23)cc2c1[nH]c1ccccc12 | < 80 |  |  | 
2 | COc1cc(Cn2c3ccccc3c3cc(C)c(O)cc32)cc2c1[nH]c1ccccc12 | < 80 |  |  | 
3 | COc1cc(Cc2c(C)cc(OC)c3[nH]c4ccccc4c23)cc2c1[nH]c1ccccc12 |  | 18.6 | Non-toxic | 
4 | COc1ccc2c([nH]c3c(-c4c(O)c(C)cc5c4[nH]c4ccccc45)c(O)c(C)cc32)c1C=O | < 80 |  |  | 
5 | COc1cc(Cn2c3ccccc3c3cc(CO)cc(OC)c32)cc2c1[nH]c1ccccc12 |  | 19.3 | Non-toxic | 
6 | COc1cc(C)c(Cc2ccc3[nH]c4ccccc4c3c2)c2c1[nH]c1ccccc12 |  | 26.7 | Non-toxic | 
7 | COn1c2ccccc2c2cc(COCc3ccc4[nH]c5ccccc5c4c3)ccc21 |  | 21.9 | Non-toxic | 
8 | COn1c2ccccc2c2cc(COCc3ccc4c(c3)c3ccccc3n4Cc3ccc4c(c3)c3ccccc3n4OC)ccc21 |  |  | Non-toxic | < 20
9 | COc1cc(Cc2c(C)cc3c([nH]c4ccccc43)c2OC)cc2c1[nH]c1ccccc12 |  | 11.4 | Non-toxic | 
10 | COc1c(O)c(C)cc2c3ccccc3n(Cc3ccc4[nH]c5ccccc5c4c3)c12 | < 80 |  |  | 
11 | COc1cc(Cn2c3ccccc3c3cc(C)c(O)c(OC)c32)cc2c1[nH]c1ccccc12 | < 80 |  |  | 
12 | COc1ccc2c([nH]c3c(-c4c(O)c(C)cc5c4[nH]c4c(C=O)c(OC)ccc45)c(O)c(C)cc32)c1C=O | < 80 |  |  | 
13 | COn1c2ccccc2c2cc(COCc3ccc4c(c3)c3cc(Cc5ccc6c(c5)c5ccccc5n6OC)ccc3n4OC)ccc21 |  | 27.2 | Non-toxic | 
14 | COc1cc(Cc2ccc3[nH]c4c(OC)c(O)c(C)cc4c3c2)cc2c1[nH]c1ccccc12 | < 80 |  |  | 
15 | COc1cc(Cn2c3ccccc3c3cc(C=O)cc(OC)c32)cc2c1[nH]c1ccccc12 |  | 38.5 | Non-toxic | 
16 | COc1cc(Cn2c3ccccc3c3cc(C=O)ccc32)cc2c1[nH]c1ccccc12 |  | 17.9 | Non-toxic | 
17 | COn1c2ccccc2c2cc(COCc3ccc4c(c3)c3ccccc3n4OC)ccc21 |  | 11.2 | Non-toxic | 
18 | O=c1c(O)c(-c2ccc(O)c(O)c2)oc2cc(O)cc(O)c12 [QUERCETIN] |  | 17.4 |  | 
